pIC50, pKi: −log10 of the molar value.

Sequence of full-length RORγt in Jurkat cells (P51449 other isoform, or with tags, fused parts or gaps): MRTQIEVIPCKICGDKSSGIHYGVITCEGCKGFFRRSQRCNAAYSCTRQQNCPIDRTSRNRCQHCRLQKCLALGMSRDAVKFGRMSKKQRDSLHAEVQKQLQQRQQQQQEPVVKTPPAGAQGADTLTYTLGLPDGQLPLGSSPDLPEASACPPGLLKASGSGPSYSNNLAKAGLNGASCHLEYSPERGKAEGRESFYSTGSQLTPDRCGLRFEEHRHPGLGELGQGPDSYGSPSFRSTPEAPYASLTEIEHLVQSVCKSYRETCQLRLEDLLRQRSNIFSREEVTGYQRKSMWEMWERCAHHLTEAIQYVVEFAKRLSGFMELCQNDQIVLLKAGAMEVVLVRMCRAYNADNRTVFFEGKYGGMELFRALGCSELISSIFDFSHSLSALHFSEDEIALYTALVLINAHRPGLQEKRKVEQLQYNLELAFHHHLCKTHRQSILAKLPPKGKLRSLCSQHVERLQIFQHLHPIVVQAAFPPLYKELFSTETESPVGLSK
Sequence of recombinant RORγ Ligand Binding Domain (LBD) protein (P51449 269-508): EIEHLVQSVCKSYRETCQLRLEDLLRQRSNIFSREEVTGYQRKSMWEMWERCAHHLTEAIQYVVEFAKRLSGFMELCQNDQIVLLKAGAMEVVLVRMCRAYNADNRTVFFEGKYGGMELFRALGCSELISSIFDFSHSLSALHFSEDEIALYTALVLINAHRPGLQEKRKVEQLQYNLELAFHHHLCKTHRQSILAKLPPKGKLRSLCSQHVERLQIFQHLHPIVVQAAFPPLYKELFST

One assay has as its target recombinant RORγ Ligand Binding Domain (LBD) protein (Homo sapiens (Human), UniProt P51449). The assay is described as follows: Radio-Ligand RORγ Binding Assay (Assay 1). Particulars: competition with 25-hydroxy [26,27-3H]-cholesterol, SPA. The method, then:
Radio-Ligand RORγ Binding Assay (Assay 1)
Compounds described herein were tested for ability to bind to RORγ in a cell-free competition assay with commercially available radio-ligand (RL), 25-hydroxy [26,27-^3H]-cholesterol (PerkinElmer, Cat. #NET674250UC), for a ligand binding site on a recombinant RORγ Ligand Binding Domain (LBD) protein expressed as a 6×His-Glutathione-S-Transferase (GST) fusion. The assay was performed in 96-well SPA plates (PerkinElmer, Cat. #1450-401) in 50 mM HEPES buffer, pH 7.4, containing 150 mM NaCl, 5 mM MgCl2, 10% (v/v) glycerol, 2 mM CHAPS, 0.5 mM β-octylglucopyranoside and 5 mM DTT. Tested compounds were dissolved in DMSO, and semi-log (3.162×) serial dilutions of the compounds were prepared in the same solvent. Two μL of the DMSO solutions were mixed with 28 μL of 8.6 nM 25-hydroxy [26,27-^3H]-cholesterol and 50 μL of 24 nM RORγ LBD. The plate was shaken at 700 rpm for 20 min and incubated for 10 min at rt, after which 40 μL of poly-Lys YSi SPA beads (PerkinElmer, Cat. #RPNQ0010) were added to achieve […] of the beads per well. The plate was incubated on an orbital shaker for 20 min and then for 10 min without agitation at rt. SPA signal for tritium beta radiation was registered on PerkinElmer Microbeta plate reader. […] The percent inhibition vs. concentration data were fit into a four-parameter model, and IC50 values were calculated from the fit as the concentrations corresponding to the inflection points on the dose-response curves. Inhibitory constants (Ki) were calculated using the following equation, where [RL] is the concentration in the assay and KD is a dissociation constant of 25-hydroxy [26,27-^3H]-cholesterol: […]
As for “1-((2,2-difluorobenzo[d][1,3]dioxol-4-yl)methyl)-2-(difluoromethyl)-N-(4-((2-hydroxyethyl)sulfonyl)benzyl)-1H-benzo[d]imidazole-5-carboxamide [I-44]”, the pKi was above 7.00.
For “2-cyclopropyl-N-(4-(ethylsulfonyl)benzyl)-1-((6-oxo-1-(2,2,2-trifluoroethyl)-1,6-dihydropyridin-3-yl)methyl)-1H-benzo[d]imidazole-5-carboxamide [I-117]”, the pKi was below 6.00.
Same read-out and setting: then `CCOC(=O)Cc1ccc(CC(=O)Nc2ccc3c(c2)nc(C(F)(F)F)n3Cc2cccc3c2OC(F)(F)O3)cc1` [I-7, ethyl 2-(4-(2-((1-((2,2-difluorobenzo[d][1,3]dioxol-4-yl)methyl)-2-(trifluoromethyl)-1H-benzo[d]imidazol-5-yl)amino)-2-oxoethyl)phenyl)acetate], with 6.00 to 7.00.
The same measure, in the same setting: then `CCS(=O)(=O)c1ccc(CNC(=O)c2ccc3c(c2)nc([C@H]2C[C@H]2C#N)n3Cc2cccc3c2OC(F)(F)O3)cc1` [I-56, 2-((1S,2R)-2-cyanocyclopropyl)-1-((2,2-difluorobenzo[d][1,3]dioxol-4-yl)methyl)-N-(4-(ethylsulfonyl)benzyl)-1H-benzo[d]imidazole-5-carboxamide], with 6.00 to 7.00; and `CCS(=O)(=O)c1ccc(CNC(=O)c2ccc3c(c2)nc(C(F)(F)F)n3Cc2nnc3n2CCC3)cc1` [I-86, 1-((6,7-dihydro-5H-pyrrolo[2,1-c][1,2,4]triazol-3-yl)methyl)-N-(4-(ethylsulfonyl)benzyl)-2-(trifluoromethyl)-1H-benzo[d]imidazole-5-carboxamide], with below 6.00; and `CCS(=O)(=O)c1ccc(CNC(=O)c2ccc3c(c2)nc(C2CC2)n3C[C@H]2CCN(C(=O)OC(C)(C)C)C2)cc1` [I-107, tert-butyl (R)-3-((2-cyclopropyl-5-((4-(ethylsulfonyl)benzyl)carbamoyl)-1H-benzo[d]imidazol-1-yl)methyl)pyrrolidine-1-carboxylate], with below 6.00.
Same read-out and setting: then `CCS(=O)(=O)c1ccc(CNC(=O)c2ccc3c(c2)nc(C2CC2)n3C[C@H]2CCCN2C(=O)OC(C)(C)C)cc1` [I-108, tert-butyl (R)-2-((2-cyclopropyl-5-((4-(ethylsulfonyl)benzyl)carbamoyl)-1H-benzo[d]imidazol-1-yl)methyl)pyrrolidine-1-carboxylate], with below 6.00; and `CCS(=O)(=O)c1ccc(CNC(=O)c2ccc3c(c2)nc(C2CC2)n3Cc2cnn(CC(F)(F)F)c2)cc1` [I-111, 2-cyclopropyl-N-(4-(ethylsulfonyl)benzyl)-1-((1-(2,2,2-trifluoroethyl)-1H-pyrazol-4-yl)methyl)-1H-benzo[d]imidazole-5-carboxamide], with below 6.00; and `CCS(=O)(=O)c1ccc(CNC(=O)c2ccc3c(c2)nc(C2CC2)n3Cc2cccc(C#N)c2)cc1` [I-112, 1-(3-cyanobenzyl)-2-cyclopropyl-N-(4-(ethylsulfonyl)benzyl)-1H-benzo[d]imidazole-5-carboxamide], with 6.00 to 7.00.
For the compound `CCS(=O)(=O)c1ccc(CNC(=O)c2ccc3c(c2)nc(C2CC2)n3Cc2ccn(CC(F)(F)F)n2)cc1` [I-114, 2-cyclopropyl-N-(4-(ethylsulfonyl)benzyl)-1-((1-(2,2,2-trifluoroethyl)-1H-pyrazol-3-yl)methyl)-1H-benzo[d]imidazole-5-carboxamide], the pKi is below 6.00.
Turning to `CCS(=O)(=O)c1ccc([C@@H](CO)NC(=O)c2ccc3c(c2)nc(C2CC2)n3Cc2cccc3c2OC(F)(F)O3)nc1` [I-133.2, (S)-2-cyclopropyl-1-((2,2-difluorobenzo[d][1,3]dioxol-4-yl)methyl)-N-(1-(5-(ethylsulfonyl)pyridin-2-yl)-2-hydroxyethyl)-1H-benzo[d]imidazole-5-carboxamide], the pKi is 6.00 to 7.00.
Same read-out and setting: as for `CS(=O)(=O)c1ccc([C@H](CO)NC(=O)c2ccc3c(c2)nc(C(F)(F)F)n3Cc2cccc3c2OC(F)(F)O3)nc1` [I-135, (R)-1-((2,2-difluorobenzo[d][1,3]dioxol-4-yl)methyl)-N-(2-hydroxy-1-(5-(methylsulfonyl)pyridin-2-yl)ethyl)-2-(trifluoromethyl)-1H-benzo[d]imidazole-5-carboxamide], the figure is 6.00 to 7.00; as for `CCS(=O)(=O)c1ccc(CNC(=O)c2ccc3c(c2)nc(C(F)(F)F)n3CC2CCN(C(=O)OC(C)(C)C)CC2)cc1` [I-145, tert-butyl 4-((5-((4-(ethylsulfonyl)benzyl)carbamoyl)-2-(trifluoromethyl)-1H-benzo[d]imidazol-1-yl)methyl)piperidine-1-carboxylate], 6.00 to 7.00.
As to `CCS(=O)(=O)c1ccc(CNC(=O)c2ccc3c(c2)nc(C(F)(F)F)n3Cc2cccn(C)c2=O)cc1` [I-146, N-(4-(ethylsulfonyl)benzyl)-1-((1-methyl-2-oxo-1,2-dihydropyridin-3-yl)methyl)-2-(trifluoromethyl)-1H-benzo[d]imidazole-5-carboxamide], the pKi is 6.00 to 7.00.
Same read-out and setting: as for `CCS(=O)(=O)c1ccc(CNC(=O)c2ccc3c(c2)nc(C2CC2)n3C[C@H]2CCN(CC(F)(F)F)C2)cc1` [I-156, (S)-2-cyclopropyl-N-(4-(ethylsulfonyl)benzyl)-1-((1-(2,2,2-trifluoroethyl)pyrrolidin-3-yl)methyl)-1H-benzo[d]imidazole-5-carboxamide], the figure is below 6.00.
Same read-out and setting: as for `CCS(=O)(=O)c1ccc(CNC(=O)c2ccc3c(c2)nc(C2CC2)n3C[C@H]2CCCN2CC(F)(F)F)cc1` [I-157, (R)-2-cyclopropyl-N-(4-(ethylsulfonyl)benzyl)-1-((1-(2,2,2-trifluoroethyl)pyrrolidin-2-yl)methyl)-1H-benzo[d]imidazole-5-carboxamide], the figure is below 6.00; as for `CCS(=O)(=O)c1ccc(CNC(=O)c2ccc3c(c2)nc(C2CC2)n3C[C@H]2CCN(c3ncc(F)cn3)C2)cc1` [I-159, (R)-2-cyclopropyl-N-(4-(ethylsulfonyl)benzyl)-1-((1-(5-fluoropyrimidin-2-yl)pyrrolidin-3-yl)methyl)-1H-benzo[d]imidazole-5-carboxamide], below 6.00; as for `CN1CCN(S(C)(=O)=O)CCC1CNC(=O)c1ccc2c(c1)nc(C(F)(F)F)n2Cc1cccc2c1OC(F)(F)O2` (centres unmarked) [I-171, 1-((2,2-difluorobenzo[d][1,3]dioxol-4-yl)methyl)-N-((4-methyl-1-(methylsulfonyl)-1,4-diazepan-5-yl)methyl)-2-(trifluoromethyl)-1H-benzo[d]imidazole-5-carboxamide], 6.00 to 7.00.
The same measure, in the same setting: as for `CCS(=O)(=O)c1ccc(C(CO)(CO)NC(=O)c2ccc3c(c2)nc(C(F)(F)F)n3Cc2cccc3c2OC(F)(F)O3)cc1` [I-174, 1-((2,2-difluorobenzo[d][1,3]dioxol-4-yl)methyl)-N-(2-(4-(ethylsulfonyl)phenyl)-1,3-dihydroxypropan-2-yl)-2-(trifluoromethyl)-1H-benzo[d]imidazole-5-carboxamide], the figure is above 7.00.

In the next assay the target is full-length RORγt in Jurkat cells (Homo sapiens (Human), UniProt P51449). The assay is described as follows: RORγt 5×RORE Assay in Jurkat Cells (Assay 2). Format: cell-based. Particulars: 5×RORE Nanoluc luciferase reporter. On the procedure:
RORγt 5×RORE Assay in Jurkat Cells (Assay 2)
Compounds described herein were tested for RORγ inverse agonist activity in a cell-based, transcriptional activity assay. Secreted Nanoluc® luciferase was used as a reporter for transcriptional activity of the full-length RORγt in Jurkat cells (ATCC, Cat. #TIB-152). […] (Promega, Cat. #N1021) using KpnI and HindIII restriction sites. […] After 5-6 hrs of incubation at 37° C./5% CO2, the cells were collected, resuspended in phenol-red free RPMI media containing 10% (v/v) delipidated FBS (Hyclone, Cat. #SH30855.03) and dispensed into 96-well clear bottom tissue culture plates (CoStar, Cat. #3603), at 80,000 cells per well. Tested compounds were added to the cells in the same media (final concentration of DMSO was 0.1% (v/v)), and the plates were incubated at 37° C./5% CO2 for 16-18 hrs. Luciferase activity in the conditioned supernatants was determined with NanoGlo® assay reagents (Promega, Cat. #N1130).
A general note: In a reporter assay the amount or activity of a reporter protein is the signal.
As for “1-((2,2-difluorobenzo[d][1,3]dioxol-4-yl)methyl)-2-(difluoromethyl)-N-(4-((2-hydroxyethyl)sulfonyl)benzyl)-1H-benzo[d]imidazole-5-carboxamide [I-44]”, the negative logarithm of the IC50 (pIC50) is above 7.00.
`CCS(=O)(=O)c1ccc([C@H](CO)NC(=O)c2ccc3c(c2)nc(C2CC2)n3Cc2cccc3c2OC(F)(F)O3)cc1` [I-12, (R)-2-cyclopropyl-1-((2,2-difluorobenzo[d][1,3]dioxol-4-yl)methyl)-N-(1-(4-(ethylsulfonyl)phenyl)-2-hydroxyethyl)-1H-benzo[d]imidazole-5-carboxamide] showed a pIC50 above 7.00.
The same measure, in the same setting: then `CCS(=O)(=O)c1ccc([C@H](CO)NC(=O)c2ccc3c(c2)nc(C2(F)CCC2)n3Cc2cccc3c2OC(F)(F)O3)cc1` [I-19, (R)-1-((2,2-difluorobenzo[d][1,3]dioxol-4-yl)methyl)-N-(1-(4-(ethylsulfonyl)phenyl)-2-hydroxyethyl)-2-(1-fluorocyclobutyl)-1H-benzo[d]imidazole-5-carboxamide], with above 7.00; and `CCS(=O)(=O)c1ccc(CNC(=O)c2ccc3c(c2)nc(C(F)(F)F)n3Cc2cccc3c2OC(F)(F)O3)[n+]([O-])c1` [I-161, 2-((1-((2,2-difluorobenzo[d][1,3]dioxol-4-yl)methyl)-2-(trifluoromethyl)-1H-benzo[d]imidazole-5-carboxamido)methyl)-5-(ethylsulfonyl)pyridine 1-oxide], with above 7.00.

As a reminder, the pKi is the negative decadic logarithm of the Ki, by convention in mol/L. One may read the pIC50 as the negative decadic logarithm of the IC50, by convention in mol/L.

(Values after patent US10829481B2, “Benzimidazole derivatives as modulators of ROR-gamma” (Vitae Pharmaceuticals, LLC, priority 2016, dated 2020).)
